Blank lines part the entries; values can stand above or below the compound they belong to.
Legend:
[1] = system: lymphatic system of dogs; assay: Lymphography comparison of A, B and C after direct and indirect administration; type: in vivo
Procedure: The following table compares the advantageous effects of the compounds of this invention in lymphography, using as test substances thiodipropionic acid bis[3,5-bis-(2,3-dihydroxypropyl-N-methylcarbamoyl)-2,4,6-triiodoanilide] (A) and 4,4,6,6-tetramethyl-4,6-disila-5-oxanonanedioic acid bis[3,5-bis(2,3-dihydroxypropyl-N-methylcarbamoyl)-2,4,6-triiodoanilide] (B) in comparison with the fatty acid ethyl ester of iodinated oleum papaveris (C). The test results were determined on dogs using testing methods conventional in lymphography after direct and indirect administration.

[2] = Stability to light and air (iodine cleavage); type: physicochemical; settings: comparison table of A, B and C
[3] = cited from earlier work
[4] = dimeglumine salt; cited from earlier work
[5] = system: lymphatic system; settings: cited from earlier work
[6] = dogs, direct and indirect administration

Compatibility (embolism) ([1]; dog, in vivo): No Embolisms
Residence Time in the Body ([1]; dog, in vivo): Hours
Stability [2]: Stable
Compound: CN(CC(O)CO)C(=O)c1c(I)c(NC(=O)CCSCCC(=O)Nc2c(I)c(C(=O)N(C)CC(O)CO)c(I)c(C(=O)N(C)CC(O)CO)c2I)c(I)c(C(=O)N(C)CC(O)CO)c1I (stereo not drawn) [A, thiodipropionic acid bis[3,5-bis-(2,3-dihydroxypropyl-N-methylcarbamoyl)-2,4,6-triiodoanilide]]

Compound: CN(CC(O)CO)C(=O)c1c(I)c(NC(=O)CC[Si](C)(C)O[Si](C)(C)CCC(=O)Nc2c(I)c(C(=O)N(C)CC(O)CO)c(I)c(C(=O)N(C)CC(O)CO)c2I)c(I)c(C(=O)N(C)CC(O)CO)c1I (stereo not drawn) [B, 4,4,6,6-tetramethyl-4,6-disila-5-oxanonanedioic acid bis[3,5-bis(2,3-dihydroxypropyl-N-methylcarbamoyl)-2,4,6-triiodoanilide]]
Compatibility (embolism) [1, 6]: No Embolisms
Residence Time in the Body [1, 6]: Hours
Stability [2]: Stable

Compound: CNC(=O)c1c(I)c(NC(=O)CCCCC(=O)Nc2c(I)c(C(=O)O)c(I)c(C(=O)NC)c2I)c(I)c(C(=O)O)c1I [iocarmic acid]
Osmotic pressure compared with monomers ([3]; dimeglumine salt): somewhat lower osmotic pressure
Concentration in the urine [4]: increased

Compound: CC(=O)NCc1c(I)c(NC(C)=O)c(I)c(C(=O)O)c1I [iodamide]
Compatibility ([5]; crystalline suspensions, inflammation at the injection site and in the lymphatic system): insufficient compatibility
Excretion period ([5]; in vivo): days to weeks

Compound: CC(=O)Nc1c(I)c(C(=O)N[C@H]2C(O)O[C@H](CO)[C@@H](O)[C@@H]2O)c(I)c(N(C)C(C)=O)c1I (stereo partly drawn) [metrizamide]
Osmotic pressure ([3]; solution of 300 mg iodine/ml, blood 7.5 atmospheres): 12 atmospheres
Usefulness for lymphography ([5]; in vivo): useless for lymphography
